From the supplement of paper PMC10307832

How the values were obtained:
Experiment in all cases: relative viability (nuclei count vs DMSO), 5 days (fraction); higher = more cells survive
[1] = tested on: ABC-1
Method in brief: (§1)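 For relative viability, nuclei counts in treated wells were divided by those in vehicle wells. Lung cancer cell lines had been pin-tool dosed in 1536-well plates the day after seeding and cultured for 5 days, then fixed and stained in one step (final 0.05% Triton X-100, 1% formaldehyde, 1 ug/ml Hoechst) and imaged at 4×. Doses were one drug alone or a fixed anchor-drug dose plus five library-drug doses (not always all listed) in √10 steps, and values are duplicate-plate medians.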

[2] = tested on: COR-L23
Method in brief: as §1

[3] = tested on: HARA
Method in brief: as §1

[4] = tested on: SK-LU-1
Method in brief: as §1

[5] = tested on: NCI-H441
Method in brief: as §1

[6] = tested on: PC-3 [JPC-3]
Method in brief: as §1

[7] = tested on: NCI-H3122
Method in brief: as §1

[8] = tested on: EMC-BAC-2
Method in brief: as §1

[9] = tested on: LK-2
Method in brief: as §1

[10] = tested on: CAL-12T
Method in brief: as §1

[11] = tested on: NCI-H1650
Method in brief: as §1

[12] = tested on: NCI-H1437
Method in brief: as §1

[13] = tested on: HCC-366
Method in brief: as §1

[14] = tested on: NCI-H727
Method in brief: as §1

[15] = tested on: NCI-H1755
Method in brief: as §1

[16] = tested on: RERF-LC-KJ
Method in brief: as §1

[17] = tested on: NCI-H2347
Method in brief: as §1

[18] = tested on: NCI-H596
Method in brief: as §1

[19] = tested on: NCI-H1651
Method in brief: as §1

[20] = tested on: UMC-11
Method in brief: as §1

[21] = tested on: NCI-H1563
Method in brief: as §1

[22] = tested on: NCI-H1734
Method in brief: as §1

[23] = tested on: HOP-62
Method in brief: as §1

Compound: CN1CCN(CCOc2cc(OC3CCOCC3)c3c(Nc4c(Cl)ccc5c4OCO5)ncnc3c2)CC1 [Saracatinib] + COc1cccc2cc(-c3nc([C@H]4CC[C@H](C(=O)O)CC4)n4ncnc(N)c34)[nH]c12 [OSI-027] (partner 0.5 µM)
- relative viability ([1]; first compound 0.02 µM): 0.428
- relative viability ([1]; first compound 0.2 µM): 0.65
- relative viability ([1]; first compound 0.6325 µM): 0.547
- relative viability ([1]; first compound 2 µM): 0.543
- relative viability ([2]; first compound 0.02 µM): 0.698
- relative viability ([2]; first compound 0.2 µM): 0.684
- relative viability ([2]; first compound 0.6325 µM): 0.746
- relative viability ([2]; first compound 2 µM): 0.641
- relative viability ([3]; first compound 0.02 µM): 0.544
- relative viability ([3]; first compound 0.2 µM): 0.263
- relative viability ([3]; first compound 0.6325 µM): 0.483
- relative viability ([3]; first compound 2 µM): 0.205
- relative viability ([4]; first compound 0.02 µM): 0.33
- relative viability ([4]; first compound 0.2 µM): 0.28
- relative viability ([4]; first compound 0.6325 µM): 0.245
- relative viability ([4]; first compound 2 µM): 0.172
- relative viability ([5]; first compound 0.02 µM): 0.614
- relative viability ([5]; first compound 0.2 µM): 0.532
- relative viability ([5]; first compound 0.6325 µM): 0.875
- relative viability ([5]; first compound 2 µM): 0.623
- relative viability ([6]; first compound 0.02 µM): 0.793
- relative viability ([6]; first compound 0.2 µM): 0.718
- relative viability ([6]; first compound 0.6325 µM): 0.61
- relative viability ([6]; first compound 2 µM): 0.436
- relative viability ([7]; first compound 0.02 µM): 0.957
- relative viability ([7]; first compound 0.2 µM): 0.357
- relative viability ([7]; first compound 0.6325 µM): 0.968
- relative viability ([7]; first compound 2 µM): 0.718
- relative viability ([8]; first compound 0.02 µM): 0.412
- relative viability ([8]; first compound 0.2 µM): 0.322
- relative viability ([8]; first compound 0.6325 µM): 0.355
- relative viability ([8]; first compound 2 µM): 0.297
- relative viability ([9]; first compound 0.02 µM): 0.218
- relative viability ([9]; first compound 0.2 µM): 0.165
- relative viability ([9]; first compound 0.6325 µM): 0.161
- relative viability ([9]; first compound 2 µM): 0.151
- relative viability ([10]; first compound 0.02 µM): 0.734
- relative viability ([10]; first compound 0.2 µM): 0.677
- relative viability ([10]; first compound 0.6325 µM): 1.08
- relative viability ([10]; first compound 2 µM): 0.57
- relative viability ([11]; first compound 0.02 µM): 0.611
- relative viability ([11]; first compound 0.2 µM): 0.396
- relative viability ([11]; first compound 0.6325 µM): 0.524
- relative viability ([11]; first compound 2 µM): 0.254
- relative viability ([12]; first compound 0.02 µM): 0.913
- relative viability ([12]; first compound 0.2 µM): 0.671
- relative viability ([12]; first compound 0.6325 µM): 0.96
- relative viability ([12]; first compound 2 µM): 0.812
- relative viability ([13]; first compound 0.02 µM): 1.02
- relative viability ([13]; first compound 0.6325 µM): 0.757
- relative viability ([13]; first compound 2 µM): 0.385
- relative viability ([14]; first compound 0.02 µM): 0.496
- relative viability ([14]; first compound 0.2 µM): 0.463
- relative viability ([14]; first compound 0.6325 µM): 0.529
- relative viability ([14]; first compound 2 µM): 0.485
- relative viability ([15]; first compound 0.02 µM): 0.691
- relative viability ([15]; first compound 0.2 µM): 0.643
- relative viability ([15]; first compound 0.6325 µM): 0.706
- relative viability ([15]; first compound 2 µM): 0.634
- relative viability ([16]; first compound 0.02 µM): 0.575
- relative viability ([16]; first compound 0.2 µM): 0.569
- relative viability ([16]; first compound 0.6325 µM): 0.546
- relative viability ([16]; first compound 2 µM): 0.52
- relative viability ([17]; first compound 0.02 µM): 0.348
- relative viability ([17]; first compound 0.2 µM): 0.373
- relative viability ([17]; first compound 0.6325 µM): 0.406
- relative viability ([17]; first compound 2 µM): 0.306
- relative viability ([18]; first compound 0.02 µM): 0.721
- relative viability ([18]; first compound 0.2 µM): 0.429
- relative viability ([18]; first compound 0.6325 µM): 0.623
- relative viability ([18]; first compound 2 µM): 0.403
- relative viability ([19]; first compound 0.02 µM): 0.694
- relative viability ([19]; first compound 0.2 µM): 0.657
- relative viability ([19]; first compound 0.6325 µM): 0.81
- relative viability ([19]; first compound 2 µM): 0.485
- relative viability ([20]; first compound 0.02 µM): 0.503
- relative viability ([20]; first compound 0.6325 µM): 0.453
- relative viability ([20]; first compound 2 µM): 0.339
- relative viability ([21]; first compound 0.02 µM): 0.703
- relative viability ([21]; first compound 0.2 µM): 0.663
- relative viability ([21]; first compound 0.6325 µM): 0.645
- relative viability ([21]; first compound 2 µM): 0.711
- relative viability ([22]; first compound 0.02 µM): 0.635
- relative viability ([22]; first compound 0.6325 µM): 0.571
- relative viability ([22]; first compound 2 µM): 0.507
- relative viability ([23]; first compound 0.02 µM): 0.836
- relative viability ([23]; first compound 0.2 µM): 0.796
- relative viability ([23]; first compound 0.6325 µM): 0.794
- relative viability ([23]; first compound 2 µM): 0.773
